Key:
[1] = test system: lung tissue eosinophilia, mucus secretion and mast cells; assay: Histologic analysis of lung tissue (H&E, PAS, toluidine-blue); assay type: in vivo, BALB/c mice; details: OVA-challenged mice; for lung tissue eosinophilia / eosinophil-rich leukocyte infiltration (H&E): vs DMSO control
Experimental: Lungs were fixed in 10% neutral formalin, paraffinized, cut into 6-μm sections, and stained with hematoxylin and eosin (H&E) for examining cell infiltration and with periodic acid-Schiff stain (PAS) for measuring mucus production. Quantitative analysis was performed blinded as described below. Mast cells were detected in lung tissue using toluidine-blue staining, and the number of mast cells was counted in paraffin sections. The percentage of degranulated mast cells in the lung was calculated by counting the number of cells with 10% of extrusion of granules.
For both H&E and PAS staining, bronchioles selected for analysis were of similar structure and sizes, with clear morphology presentations and minimum disruptions of the surrounding tissues that could be formed during sectioning. The scoring of inflammatory and globlet cells was performed in 2-4 preparations of each mouse and mean scores were calculated from 4-5 mice. Peribronchial cell counts were performed in a blind manner and scored as known in the art. A five-point scoring system (0-4) was adapted: 0, no cells; 1, a few cells; 2, a ring of cells one cell layer deep; 3, a ring of cells two to four cells deep; 4, a ring of cells more than four cells deep. Goblet cell hyperplasia in the airway epithelium was assessed blind and scored according to the percentage of PAS-positive mucus-producing cells. A five-point (0-4) grading system was as follows: 0, no goblet cells; 1, <25%; 2, 25-50%; 3, 50-75%; 4, >75%. Briefly, to determine the severity of inflammatory cell infiltration, peribronchial cell counts were performed blind based on a 5-point scoring system: 0, no cells; 1, a few cells; 2, a ring of cells 1 cell layer deep; 3, a ring of cells 2-4 cells deep; 4, a ring of cells of >4 cells deep. To determine the extent of mucus production, goblet cell hyperplasia in the airway epithelium was quantified blind using a 5-point grading system: 0, no goblet cells; 1, <25%; 2, 25-50%; 3, 50-75%; 4, >75%. Scoring of inflammatory cells and goblet cells was performed in at least 3 different fields for each lung section. Mean scores were obtained from 4 animals. *Significant difference from DMSO control, P<0.05.

OVA-induced AHR = assay: Airway hyper-responsiveness (AHR) to intravenous methacholine; assay type: in vivo, BALB/c mice; details: 1 mg/kg; for OVA-induced airway hyperresponsiveness (AHR) to methacholine: OVA-challenged mice
Experimental: Mice were anesthetized and tracheotomy was performed as described above. The internal jugular vein was cannulated and connected to a microsyringe for intravenous methacholine administration. Airway resistance (RI) and dynamic compliance (Cdyn) in response to increasing concentrations of mechacholine were recorded using a whole body plethysmograph chamber (Buxco, Sharon, Conn.) and ventilated mechanically by a ventilator via the tube that was inserted into the trachea at a tidal volume of 200 μl/breadth and a breathing rate of 150/min. Airflow and pressure changes were detected by respective transducers, recorded and analyzed by Biosystem XA software (Buxco, Sharon, Conn., USA). Results are expressed as a percentage of the respective basal values in response to phosphate buffered saline (PBS).

[2] = test system: NF-κB signaling pathway in normal human bronchial epithelial cells; assay: TNF-α-induced NF-κB activation in normal human bronchial epithelial cells (immunoblotting, TransAM p65 ELISA); assay type: cell-based; details: 30 μM
Experimental: To determine the effects of andrograhpolide on OVA-specific immune responses in lymphocytes, thoracic lymph node cells were grown in bronchial epithelial bulletkit medium (Cambrex BioScience, Walkersvile, Md., USA), supplemented with bovine pituitary extract (2 ml), hydrocortisone (0.5 ml), recombinant human EGF (0.5 ml), epinephrine (0.5 ml), transferrin (0.5 ml), insulin (0.5 ml), retinoic acid (0.5 ml), triiodothyronine (0.5 ml), gentamycin sulfate (50 μg/ml), and amphotericin B (50 ng/ml). The cells were incubated in 5% CO2 incubator at 37° C., and subcultured at 80% to 85% confluency. Cells were exposed to 200 μg/ml OVA for 72 hours. Concanavalin A (Con A, 10 μug/ml) was used as a positive control. Supernatants from parallel triplicate cultures were analyzed for cytokine levels by ELISA. Normal human bronchial epithelial cells were cultured in optimized bronchial epithelial bulletkit medium with supplements (Lonza, Basel, Switzerland). Cells were pretreated with 30 μM andrographolide or vehicle (0.01% DMSO) 4 hours before stimulation with 10 ng/ml tumor necrosis factor (TNF)-α. Total and nuclear proteins, and mRNA were extracted from cells at specified time intervals.
Lung and cell culture nuclear proteins ([…]) were isolated. Lysates were incubated on ice for 30 min before centrifugation (18,000 g for 5 min). The supernatants were collected, and protein concentrations were determined using a BCA protein assay kit. 28 μl of the protein measured were mixed with 7 μl 5× sample buffer and boiled at 95° C. for 5 min. 10% SDS-PAGE gel was set as known in the art. The gel was placed in a Trans-Blot tank (Bio-Rad Laboratories, Hercules, Calif.). 30 μl of the sample mixtures and Pre-stained SDS Page Marker (Bio-Rad Laboratories, Hercules, Calif.) were loaded into respective wells and ran at 100V for 2 hours. The proteins were then transferred to a PVDF membrane using a semi-dry transblotter (ATTO Corp, Tokyo, Japan). The PVDF membrane was blocked with 5% non-fat milk in Tween-20 Tris buffered saline (TTBS) for 2 hours and probed with various primary antibodies in 1% non-fat milk in TTBS (1:2,000 for anti-rabbit antibodies; 1:5,000 for anti-mouse antibodies; 1:10,000 for β-actin) overnight at 4° C. The PVDF was then washed with TTBS for 10 times (2-3 min each), and incubated in HRP- or AP-conjugated anti-mouse or anti-rabbit antibodies for 1 hour. The membrane was again washed with TTBS. For HRP-conjugated antibody, 1 ml each of HRP substrate 1 and substrate 2 were added onto the membrane. For AP-conjugated antibody, 7.5 ml of AP substrates (300 μl AP 25×Buffer, 75 μl Reagent A, 75 μl Reagent B, 7.5 ml water) was added per gel. The data was then developed in the dark on hyperfilms using an ECL reagent. Immunoblots were probed with anti-p65, anti-phospho-p65 (Ser536), and anti-TATA binding protein (TBP, Abcam, Cambridge, UK).
Nuclear proteins were also analyzed for NF-κB DNA-binding activity using the TransAM p65 transcription factor assay kit (Active Motif, Carlsbad, Calif.).

[3] = 10 ng/ml TNF-α for 5, 15 and 30 minutes
[4] = OVA-challenged, mechanically ventilated mice

Row | SMILES | E-selectin [1] | VCAM-1 [1] | airway mucus production / mucus hypersecretion (PAS) ([1]; 1 mg/kg) | lung tissue eosinophilia / eosinophil-rich leukocyte infiltration (H&E) ([1]; 1 mg/kg) | OVA-induced airway hyperresponsiveness (AHR) to methacholine (OVA-induced AHR) | TNF-α-induced IκBα degradation [2, 3] | TNF-α-induced p65 subunit of NF-κB phosphorylation [2, 3] | TNF-α-induced phosphorylation of IKKβ [2, 3] | IκB phosphorylation ([2]; 10 ng/ml TNF-α) | TNF-α-induced p65 DNA-binding activity ([2]; TNF-α for 30 minutes) | TNF-α-induced p65 nuclear translocation ([2]; TNF-α for 30 minutes) | total degranulating mast cell counts in toluidine-blue staining lung section ([1]; 1 mg/kg, vs DMSO vehicle control) | dynamic compliance (Cdyn) in response to methacholine (OVA-induced AHR; [4]) | lung resistance (RI) in response to methacholine (OVA-induced AHR; [4]) | TNF-α-induced p65 DNA-binding ([2]; 10 ng/ml TNF-α for 5 minutes) | TNF-α-induced p65 nuclear translocation ([2]; 10 ng/ml TNF-α for 5 minutes)
1 | C=C1CC[C@@H]2[C@](C)(CO)[C@H](O)CC[C@@]2(C)[C@@H]1C/C=C1/C(=O)OC[C@H]1O [Andrographolide] | inhibited | inhibited | attenuated | attenuated | blocked | blocked | blocked | blocked | inhibition | blocked | blocked |  |  |  |  | 
2 | C=C1CCC2C(C)(CO)C(O)CCC2(C)C1C=CC1=CCOC1=O (stereo not shown) [DDAG, 14-Deoxy-11,12-didehydroandrographolide] |  |  | significantly halted | markedly diminished | significantly inhibited |  |  |  |  |  |  | drastically decreased | restored | dramatically reduced | markedly abated | markedly abated

From patent US20120015923A1, “USE OF ANDROGRAPHOLIDE COMPOUNDS FOR TREATING INFLAMMATION AND AIRWAY DISORDERS” (NATIONAL UNIVERSITY OF SINGAPORE, priority 2009, published 2012)
